According to patent publication US8541002B2, “Vaccine for treatment and prevention of herpes simplex virus infection” (Agenus Inc., priority 2003, dated 2013):

test: Turbidity assay for solubility of the peptides; format: physicochemical; details: solubility of the antigenic peptides in water or Dimethyl Sulfoxide (DMSO)
Experimental: A number of antigenic peptides of the invention were synthesized by chemical synthesis as described in Section 5.1.1.
A turbidity assay was used to assess the solubility of the peptides. Turbidity assays used either a Varian Cary double-beam spectrophotometer, or a Molecular Devices Spectromax absorbance plate reader (for high throughput experiments). The spectrophotometer assay read every 2 nm between 340 nm and 360 nm, and averaged the values. Samples were analyzed in duplicate using a quartz micro-cuvette that holds about 200 uL. The plate reader assay used a 96-well plate format that read every 4 nm between 340 nm and 360 nm and averaged those values. Samples in this assay were run in triplicate.

Structure (SMILES) | Solubility
CC[C@H](C)[C@H](NC(=O)[C@H](CC(C)C)NC(=O)[C@H](CO)NC(=O)[C@@H](NC(=O)[C@@H](NC(=O)[C@H](Cc1ccc(O)cc1)NC(=O)[C@H](CCCCN)NC(=O)[C@@H](NC(=O)[C@H](Cc1ccc(O)cc1)NC(=O)[C@H](CCCNC(=N)N)NC(=O)[C@H](Cc1c[nH]cn1)NC(=O)[C@H](CCC(=O)O)NC(=O)[C@@H](NC(=O)[C@H](CC(C)C)NC(=O)[C@H](CCC(=O)O)NC(=O)[C@H](C)NC(=O)[C@@H](NC(=O)[C@@H](N)[C@@H](C)O)[C@@H](C)CC)C(C)C)C(C)C)C(C)C)[C@@H](C)CC)C(=O)N[C@@H](CO)C(=O)N1CCC[C@H]1C(=O)N[C@@H](CCCCN)C(=O)N[C@@H](CCC(=O)O)C(=O)N[C@@H](CCCNC(=N)N)C(=O)NCC(=O)N1CCC[C@H]1C(=O)N[C@@H](Cc1c[nH]c2ccccc12)C(=O)N[C@H](C(=O)N[C@@H](CC(C)C)C(=O)N[C@@H](CC(C)C)C(=O)N[C@@H](CCCCN)C(=O)N[C@@H](CCCNC(=N)N)C(=O)N[C@@H](CC(C)C)C(=O)N1CCC[C@H]1C(=O)N[C@H](C(=O)N[C@@H](Cc1ccc(O)cc1)C(=O)O)[C@@H](C)CC)[C@@H](C)O [UL41-2] | water
CC[C@H](C)[C@H](NC(=O)[C@H](C)NC(=O)[C@H](CCC(=O)O)NC(=O)[C@H](CCCNC(=N)N)NC(=O)[C@H](CC(=O)O)NC(=O)[C@H](Cc1ccc(O)cc1)NC(=O)[C@H](CO)NC(=O)[C@@H]1CCCN1C(=O)[C@H](Cc1ccc(O)cc1)NC(=O)[C@H](CCCNC(=N)N)NC(=O)[C@H](CCCNC(=N)N)NC(=O)[C@H](CCC(N)=O)NC(=O)[C@H](Cc1ccc(O)cc1)NC(=O)[C@H](CCCCN)NC(=O)[C@@H](NC(=O)[C@@H](NC(=O)[C@H](CC(C)C)NC(=O)[C@@H](NC(=O)[C@H](Cc1ccc(O)cc1)NC(=O)[C@H](CCSC)NC(=O)[C@@H](NC(=O)[C@H](CC(N)=O)NC(=O)[C@H](Cc1c[nH]c2ccccc12)NC(=O)[C@H](CC(C)C)NC(=O)[C@H](CC(=O)O)NC(=O)[C@@H](NC(=O)[C@H](C)NC(=O)[C@@H](NC(=O)[C@@H]1CCCN1C(=O)[C@@H](NC(=O)[C@H](Cc1ccccc1)NC(=O)[C@H](Cc1ccc(O)cc1)NC(=O)CN)[C@@H](C)O)[C@@H](C)CC)C(C)C)C(C)C)[C@@H](C)O)C(C)C)C(C)C)C(=O)N[C@H](C(=O)N[C@@H](CC(C)C)C(=O)O)[C@@H](C)O [UL41-3] | DMSO
CC(C)C[C@H](NC(=O)[C@H](CO)NC(=O)[C@@H]1CCCN1C(=O)[C@H](CC(=O)O)NC(=O)[C@H](CS)NC(=O)[C@H](CC(=O)O)NC(=O)CNC(=O)[C@H](C)NC(=O)[C@@H]1CCCN1C(=O)[C@@H](N)CC(=O)O)C(=O)N[C@@H](Cc1c[nH]cn1)C(=O)N[C@H](C(=O)N[C@@H](CC(C)C)C(=O)N[C@@H](CC(C)C)C(=O)N[C@@H](CCCNC(=N)N)C(=O)N1CCC[C@H]1C(=O)N[C@H](C(=O)N[C@@H](CC(C)C)C(=O)N[C@@H](CC(C)C)C(=O)N1CCC[C@H]1C(=O)N[C@@H](CCCCN)C(=O)N[C@@H](CC(C)C)C(=O)N[C@@H](CC(C)C)C(=O)N[C@H](C(=O)N[C@@H](CCCNC(=N)N)C(=O)N[C@@H](C)C(=O)N1CCC[C@H]1C(=O)N[C@@H](Cc1ccccc1)C(=O)N[C@@H](CCCCN)C(=O)N[C@@H](CO)C(=O)NCC(=O)N[C@@H](C)C(=O)N[C@@H](C)C(=O)N[C@@H](C)C(=O)N[C@@H](C)C(=O)O)C(C)C)[C@@H](C)O)C(C)C [UL46-1] | water
CSCC[C@H](NC(=O)[C@H](Cc1c[nH]c2ccccc12)NC(=O)[C@H](CO)NC(=O)[C@H](C)NC(=O)[C@H](Cc1c[nH]c2ccccc12)NC(=O)[C@H](Cc1c[nH]cn1)NC(=O)[C@H](Cc1ccc(O)cc1)NC(=O)[C@H](CC(C)C)NC(=O)[C@@H](NC(=O)[C@H](CO)NC(=O)[C@@H](NC(=O)[C@H](Cc1ccc(O)cc1)NC(=O)[C@H](C)NC(=O)[C@H](CC(C)C)NC(=O)[C@H](CC(C)C)NC(=O)[C@H](CCC(=O)O)NC(=O)[C@H](CO)NC(=O)[C@H](CC(C)C)NC(=O)[C@H](CCCNC(=N)N)NC(=O)[C@H](CC(C)C)NC(=O)[C@H](C)NC(=O)[C@@H](NC(=O)[C@H](CC(=O)O)NC(=O)[C@@H](NC(=O)[C@H](CO)NC(=O)[C@@H]1CCCN1C(=O)[C@H](CCCNC(=N)N)NC(=O)[C@H](CO)NC(=O)[C@@H]1CCCN1C(=O)[C@H](CC(=O)O)NC(=O)[C@H](C)N)[C@@H](C)O)[C@@H](C)O)C(C)C)C(C)C)C(=O)N[C@@H](CC(C)C)C(=O)N[C@@H](Cc1c[nH]c2ccccc12)C(=O)N[C@H](C(=O)N[C@@H](C)C(=O)O)[C@@H](C)O [UL46-2] | DMSO
CSCC[C@H](NC(=O)[C@@H]1CCCN1C(=O)CNC(=O)[C@H](C)NC(=O)CNC(=O)[C@H](CCCNC(=N)N)NC(=O)[C@H](CCCNC(=N)N)NC(=O)[C@@H](N)Cc1ccccc1)C(=O)N[C@@H](CCCNC(=N)N)C(=O)N[C@@H](C)C(=O)N[C@@H](CCCNC(=N)N)C(=O)N1CCC[C@H]1C(=O)N[C@@H](CCCNC(=N)N)C(=O)NCC(=O)N[C@@H](CCC(=O)O)C(=O)N[C@H](C(=O)N[C@@H](CCCNC(=N)N)C(=O)N[C@@H](Cc1ccccc1)C(=O)N[C@@H](CC(C)C)C(=O)N[C@@H](Cc1c[nH]cn1)C(=O)N[C@@H](Cc1ccc(O)cc1)C(=O)N[C@@H](CC(=O)O)C(=O)N[C@@H](CCC(=O)O)C(=O)N[C@@H](C)C(=O)NCC(=O)N[C@@H](Cc1ccc(O)cc1)C(=O)N[C@@H](C)C(=O)N[C@@H](CC(C)C)C(=O)N[C@@H](Cc1ccc(O)cc1)C(=O)N[C@@H](CCCNC(=N)N)C(=O)N[C@@H](CC(=O)O)C(=O)N[C@@H](CO)C(=O)N[C@@H](CO)C(=O)N[C@@H](CO)C(=O)N[C@@H](CC(=O)O)C(=O)O)C(C)C [UL49-1] | water
CC(C)C[C@H](NC(=O)[C@H](CCCNC(=N)N)NC(=O)CNC(=O)[C@@H](NC(=O)[C@H](C)NC(=O)[C@H](C)NC(=O)[C@H](CS)NC(=O)[C@H](Cc1ccccc1)NC(=O)[C@@H](NC(=O)[C@H](CCCNC(=N)N)NC(=O)[C@H](CCCCN)NC(=O)[C@H](CC(N)=O)NC(=O)[C@H](Cc1ccccc1)NC(=O)CNC(=O)[C@H](C)NC(=O)[C@@H](NC(=O)[C@H](CCCNC(=N)N)NC(=O)[C@@H]1CCCN1C(=O)[C@@H](NC(=O)[C@H](Cc1c[nH]c2ccccc12)NC(=O)[C@@H]1CCCN1C(=O)[C@H](C)NC(=O)[C@@H](NC(=O)[C@@H]1CCCN1C(=O)[C@@H](N)CO)[C@@H](C)O)[C@@H](C)O)C(C)C)C(C)C)C(C)C)C(=O)N[C@@H](C)C(=O)N[C@@H](C)C(=O)N[C@H](C(=O)N[C@@H](Cc1c[nH]cn1)C(=O)N[C@@H](C)C(=O)N[C@@H](CCCNC(=N)N)C(=O)N[C@@H](CC(C)C)C(=O)N[C@@H](C)C(=O)N[C@@H](C)C(=O)N[C@H](C(=O)O)C(C)C)[C@@H](C)O [UL49-2] | water
CC[C@H](C)[C@H](NC(=O)[C@@H](NC(=O)[C@@H]1CCCN1C(=O)[C@@H](N)CC(=O)O)[C@@H](C)CC)C(=O)NCC(=O)N[C@H](C(=O)N[C@@H](C)C(=O)N[C@@H](C)C(=O)N[C@@H](C)C(=O)N[C@H](C(=O)N[C@@H](CC(C)C)C(=O)N[C@@H](CCC(=O)O)C(=O)N[C@@H](CC(N)=O)C(=O)N[C@@H](CC(C)C)C(=O)N[C@@H](C)C(=O)N[C@H](C(=O)N[C@@H](CCCNC(=N)N)C(=O)N[C@@H](CC(C)C)C(=O)N[C@@H](CCCNC(=N)N)C(=O)N1CCC[C@H]1C(=O)N[C@@H](Cc1ccccc1)C(=O)N[C@@H](CC(C)C)C(=O)N[C@@H](CCC(N)=O)C(=O)N[C@@H](CS)C(=O)N[C@@H](Cc1ccc(O)cc1)C(=O)N[C@@H](CC(C)C)C(=O)N[C@@H](CCCCN)C(=O)N[C@@H](C)C(=O)N[C@@H](CCCNC(=N)N)C(=O)NCC(=O)N[C@@H](CC(C)C)C(=O)N[C@@H](CS)C(=O)NCC(=O)N[C@@H](CC(C)C)C(=O)N[C@@H](CC(=O)O)C(=O)O)[C@@H](C)O)C(C)C)[C@@H](C)O [UL54-1] | water
CC[C@H](C)[C@H](NC(=O)[C@H](CC(=O)O)NC(=O)[C@H](CCCCN)NC(=O)[C@@H](NC(=O)[C@H](CC(=O)O)NC(=O)[C@H](CO)NC(=O)[C@H](CC(C)C)NC(=O)[C@H](CCCNC(=N)N)NC(=O)[C@H](CCCNC(=N)N)NC(=O)[C@H](CCCNC(=N)N)NC(=O)[C@H](CO)NC(=O)[C@H](CS)NC(=O)[C@H](CC(C)C)NC(=O)[C@H](CC(=O)O)NC(=O)[C@H](CC(=O)O)NC(=O)[C@@H](N)CC(C)C)[C@@H](C)CC)C(=O)N[C@@H](C)C(=O)N[C@@H](CO)C(=O)N[C@@H](Cc1ccccc1)C(=O)N[C@H](C(=O)N[C@@H](CC(C)C)C(=O)N[C@H](C(=O)N[C@H](C(=O)N[C@@H](CC(C)C)C(=O)N[C@@H](C)C(=O)N[C@@H](CCCNC(=N)N)C(=O)N[C@@H](CC(C)C)C(=O)N[C@@H](C)C(=O)N[C@@H](CC(N)=O)C(=O)N[C@@H](CCCNC(=N)N)C(=O)N[C@H](C(=O)N[C@@H](CCC(=O)O)C(=O)N[C@@H](CCCNC(=N)N)C(=O)NCC(=O)N[C@H](C(=O)O)C(C)C)C(C)C)[C@@H](C)CC)C(C)C)C(C)C [UL54-2] | water
CSCC[C@H](NC(=O)[C@H](CC(C)C)NC(=O)[C@H](Cc1ccccc1)NC(=O)CNC(=O)[C@H](CC(C)C)NC(=O)[C@H](CC(N)=O)NC(=O)[C@H](CC(=O)O)NC(=O)[C@H](CCC(=O)O)NC(=O)[C@H](CO)NC(=O)[C@@H](NC(=O)[C@H](C)NC(=O)[C@H](CO)NC(=O)[C@H](Cc1ccccc1)NC(=O)[C@H](CO)NC(=O)[C@H](CC(=O)O)NC(=O)[C@H](Cc1ccc(O)cc1)NC(=O)[C@H](Cc1ccc(O)cc1)NC(=O)[C@H](CO)NC(=O)[C@H](Cc1c[nH]c2ccccc12)NC(=O)[C@@H](N)CCCNC(=N)N)C(C)C)C(=O)N[C@@H](Cc1c[nH]cn1)C(=O)N[C@@H](C)C(=O)N1CCC[C@H]1C(=O)N[C@@H](C)C(=O)N[C@@H](Cc1ccccc1)C(=O)N[C@@H](CCC(=O)O)C(=O)N[C@H](C(=O)N[C@@H](C)C(=O)NCC(=O)N[C@H](C(=O)N[C@@H](Cc1ccc(O)cc1)C(=O)N[C@@H](CC(C)C)C(=O)N[C@@H](CCCNC(=N)N)C(=O)N[C@@H](CC(C)C)C(=O)N[C@H](C(=O)O)C(C)C)[C@@H](C)O)[C@@H](C)O [US06-1] | DMSO
